For assay [1], the system named is murine B16F10 melanoma cell line. The assay can be described thus: B16F10 IFNγ-induced cellular growth inhibition assay (xCELLigence RTCA). The format is cell-based. To be noted: Mus musculus, B16-F10, 48 h, B16F10 cells, 1 ng/mL mouse IFNγ, AUC of growth curve, read-out: B16 IFNγ Mediated Growth Inhibition Assay: AVG IC50. The procedure:
Compound activity was determined using an interferon gamma (IFNγ)-induced cellular growth inhibition assay with the murine B16F10 melanoma cell line on an Agilent xCELLigence Real-Time Cell Analysis platform (RTCA). RTCA E-Plate View 96 plates (Agilent, 300601010) were pre-equilibrated with 50 μL of assay media (DMEM+10% FBS, Gibco 10566-024, Gibco 10082-147) at 37° C. in a humidified incubator before taking an initial measurement of impedance (sweep). B16F10 cells cultured in assay media were dissociated with TrypLE Express (Gibco 12605-010) for five minutes at 37° C., diluted in 3 volumes of assay buffer, centrifuged for 5 minutes at 500×g at room temperature before diluting cells to 7,700 cells/mL in assay media, plating 130 μL/well (1,000 cells/well) in the inner 60 wells of the assay plate, and adding 150 μL of assay media to the outer wells of the plate. Cells were incubated at room temperature for 20 min to allow cells to settle before placing them in the xCELLigence reader and incubating overnight at 37° C., sweeping wells every 15 minutes. After 24 hours, well readings were paused, plates were removed from the incubator and compounds were added using a Tecan D300e dispenser. All wells were normalized to a final concentration of 0.5% DMSO. Following a 30 min incubation at 37° C., recombinant mouse IFNγ (R&D Systems™ 485MI100) was diluted to 10 ng/mL in assay media and 20 μL was added to assay wells (1 ng/mL final concentration). Assay plates were placed in the xCELLigence reader and swept every 15 minutes.

The target of assay [2] is full-length human PTPN2 (TC45) (1-387) (Homo sapiens (Human), UniProt P17706). The assay can be described thus: Enzymatic assay used to determine potency of PTPN2 inhibitors (full length PTPN2 DiFMUP assay). It counts as biochemical. To be noted: 0.5 nM PTPN2, 100 μM DiFMUP, 30 min at room temperature. The procedure: Compound activity was determined in an in vitro enzymatic assay using untagged, full-length human PTPN2 (TC45) (1-387) protein. PTPN2 was produced in E. coli as a GST-TEV fusion and the GST was removed by TEV digestion, followed by additional purification to yield full-length PTPN2 (SEQ ID 1). PTPN2 enzyme was diluted in assay buffer (50 mM HEPES pH7.5, 0.2 mM EDTA, 1 mM DTT, 0.02% Brij-35, 0.02% BSA) to a final concentration of 0.5 nM and added to black 384-well non-binding plates (Greiner, 781900). Compounds were subsequently added using a Tecan D300e dispenser. Following a 10 min incubation at room temperature, DiFMUP substrate (ThermoFisher, D22065) was added to a final concentration of 100 μM. Plates were transferred to a SpectraMax plate reader (Molecular Devices) and fluorescence intensity was measured (ex 358, em 455) after a 30 min incubation at room temperature. […] A four-parameter curve fit was used to determine IC50 values from % inhibition data.

These results are taken from patent publication US20250257059A1, “PROTEIN TYROSINE PHOSPHATASE INHIBITORS AND USES THEREOF” (Nerio Therapeutics, Inc., priority 2022, published 2025).

One may read the IC50 as the concentration that inhibits the measured activity by half.

Where only a bound is given, the exact number is not on record here.

Sequence of full-length human PTPN2 (TC45) (1-387) (P17706 other isoform, or with tags, fused parts or gaps): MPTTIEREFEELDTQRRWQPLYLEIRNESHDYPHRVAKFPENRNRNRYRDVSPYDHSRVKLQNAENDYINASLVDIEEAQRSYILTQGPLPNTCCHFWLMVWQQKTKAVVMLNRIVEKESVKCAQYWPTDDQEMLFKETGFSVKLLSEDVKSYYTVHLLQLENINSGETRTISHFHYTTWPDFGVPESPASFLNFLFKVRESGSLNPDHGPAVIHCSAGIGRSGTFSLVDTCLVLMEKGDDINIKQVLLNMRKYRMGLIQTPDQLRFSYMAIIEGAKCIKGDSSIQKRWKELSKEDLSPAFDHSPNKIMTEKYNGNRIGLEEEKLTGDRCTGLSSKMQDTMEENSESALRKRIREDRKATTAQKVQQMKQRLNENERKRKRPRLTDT

On to `O=C1CN(c2c(O)ccc(CC3CCCCN3CCC3CCCC3)c2F)S(=O)(=O)N1` (centres unmarked) [Example 80], for which the half-maximal inhibitory concentration (IC50) in assay [1] was found to be 22700 nM.

As for `O=C1CN(c2c(O)cc(CCN3CCC4(CCC4)C3)cc2F)S(=O)(=O)N1` [Example 99], the IC50 in assay [2] worked out at 2 nM; in assay [1] it was 183 nM.

For `O=C1CN(c2c(O)cc(CC3CNC3)cc2F)S(=O)(=O)N1` [Example 69, 5-(4-(azetidin-3-ylmethyl)-2-fluoro-6-hydroxyphenyl)-1,2,5-thiadiazolidin-3-one 1,1-dioxide], the half-inhibitory concentration (IC50) in assay [2] came out at 15 nM; in assay [1], 13600 nM.

As for `O=C1CN(c2c(O)cc(CCN3CCC4(CCCCC4)C3)cc2F)S(=O)(=O)N1` [Example 116], the half-inhibitory concentration (IC50) is 2 nM in assay [2] and 172 nM in assay [1].

Consider `O=C1CN(c2c(O)cc(C[C@@H]3CCCNCC3)cc2F)S(=O)(=O)N1` (single isomer, unassigned) [Example 59], for which the IC50 in assay [2] is 16 nM; in assay [1], over 47000 nM.

In the case of `O=C1CN(c2c(O)cc(CCN3CCC(O)C3)cc2F)S(=O)(=O)N1` (centres unmarked) [Example 103], the IC50 stood at 50 nM in assay [2] and 13200 nM in assay [1].

Turning to `O=C1CN(c2c(O)cc(C[C@H]3CCCNCC3)cc2F)S(=O)(=O)N1` (single isomer, unassigned) [Example 58], the IC50 is 51 nM in assay [2] and over 100000 nM in assay [1].

On to `CCCCCN1CCC(Cc2cc(O)c(N3CC(=O)NS3(=O)=O)c(F)c2)C1` (centres unmarked) [Example 24], for which the half-maximal inhibitory concentration (IC50) stood at 15 nM in assay [2] and 5900 nM in assay [1].

As to `CCCC1CNCC1Cc1cc(O)c(N2CC(=O)NS2(=O)=O)c(F)c1` (centres unmarked) [Example 29], the IC50 in assay [2] is 13 nM; in assay [1], over 62000 nM.

Turning to `CC(C)(C)C1CCN(CCc2cc(O)c(N3CC(=O)NS3(=O)=O)c(F)c2)C1` (centres unmarked) [Example 111], the IC50 in assay [1] is 130 nM.

Take `CC(C)CCC1CCN(CCc2cc(O)c(N3CC(=O)NS3(=O)=O)c(F)c2)C1` (centres unmarked) [Example 88]: the IC50 was 3 nM in assay [2] and 1020 nM in assay [1].

With `CC(C)CC1CCN(Cc2cc(O)c(N3CC(=O)NS3(=O)=O)c(F)c2)C1` (centres unmarked) [Example 72], the IC50 in assay [2] amounted to 66 nM; in assay [1] it was 8440 nM.

Regarding `O=C1CN(c2c(O)cc(CCN3CCC(CC(F)(F)F)C3)cc2F)S(=O)(=O)N1` (centres unmarked) [Example 130], the results for the IC50 in assay [2] and in assay [1] were 1 nM and 208 nM, respectively.

For `O=C1CN(c2c(O)cc(CCN3CC4CCC3C4)cc2F)S(=O)(=O)N1` (centres unmarked) [Example 133], the figures for the IC50 in assay [2] and in assay [1] were 3 nM and 1040 nM, respectively.

Consider `CC(C)(C)CN1CCC(Cc2cc(O)c(N3CC(=O)NS3(=O)=O)c(F)c2)C1` (centres unmarked) [Example 20], for which the IC50 was determined as 15 nM in assay [2] and 2620 nM in assay [1].

As for `COC[C@@H]1CCN(CCc2cc(O)c(N3CC(=O)NS3(=O)=O)c(F)c2)C1` [Example 117], in assay [1], the IC50 is 331 nM.

In the case of `CC(C)CCN1CCCC[C@@H]1Cc1ccc(O)c(N2CC(=O)NS2(=O)=O)c1F` (single isomer, unassigned) [Example 81], the IC50 in assay [2] was 3 nM; in assay [1], 363 nM.

In the case of `CC(C)CCN1CCC(Cc2cc(O)c(N3CC(=O)NS3(=O)=O)c(F)c2)C1` (centres unmarked) [Example 19], the values for the IC50 in assay [2] and in assay [1] were 12 nM and 8430 nM, respectively.

`CCCCCN1CCCC(Cc2cc(O)c(N3CC(=O)NS3(=O)=O)c(F)c2)C1` (centres unmarked) [Example 33]: the IC50 in assay [2] was 35 nM; in assay [1], 28800 nM.

Turning to `O=C1CN(c2c(O)cc(CC3CCNC3)cc2F)S(=O)(=O)N1` (centres unmarked) [Example 27], the results for the concentration for half-maximal inhibition (IC50) in assay [2] and in assay [1] were 7 nM and 9730 nM, respectively.

On to `O=C1CN(c2c(O)cc(CCN3CC[C@H](C(F)(F)F)C3)cc2F)S(=O)(=O)N1` (single isomer, unassigned) [Example 123], for which the IC50 in assay [2] amounted to 2 nM; in assay [1], 1840 nM.

With `CC(C)CCN1CCCC(Cc2cc(O)c(N3CC(=O)NS3(=O)=O)c(F)c2)C1` (centres unmarked) [Example 41], the half-maximal inhibitory concentration (IC50) was 47 nM in assay [2] and over 100000 nM in assay [1].

Consider `O=C1CN(c2c(O)cc(CC3CCN(Cc4ccn[nH]4)C3)cc2F)S(=O)(=O)N1` (centres unmarked) [Example 18], for which the IC50 in assay [2] is 7 nM; in assay [1], over 58000 nM.

Take `O=C1CN(c2c(O)cc(CCN3CC[C@H](F)C3)cc2F)S(=O)(=O)N1` [Example 94]: the half-inhibitory concentration (IC50) in assay [2] came to 2 nM; in assay [1] it was 469 nM.

Turning to `CCC1CNCC1Cc1cc(O)c(N2CC(=O)NS2(=O)=O)c(F)c1` (centres unmarked) [Example 30], the values for the half-inhibitory concentration (IC50) in assay [2] and in assay [1] were 13 nM and over 13000 nM, respectively.

On to `CC[C@H]1CCN(CCc2cc(O)c(N3CC(=O)NS3(=O)=O)c(F)c2)C1` [Example 109], for which the IC50 in assay [2] was 3 nM; in assay [1] it was 162 nM.

With `O=C1CN(c2c(O)cc(CC3CCCN(CC4CCCC4)C3)cc2F)S(=O)(=O)N1` (centres unmarked) [Example 34], the IC50 turned out to be 43 nM in assay [2] and 9960 nM in assay [1].

As to `O=C1CN(c2c(O)cc(CCN3CCNCC3)cc2F)S(=O)(=O)N1` [Example 100], the IC50 in assay [2] was 5 nM; in assay [1] it was 51000 nM.

On to `C[C@@H]1CCN(CCc2cc(O)c(N3CC(=O)NS3(=O)=O)c(F)c2)C1` [Example 138], for which the figures for the IC50 in assay [2] and in assay [1] were 2 nM and 406 nM, respectively.

As for `CC(C)C[C@@H]1CCN(CCc2cc(O)c(N3CC(=O)NS3(=O)=O)c(F)c2)C1` [Example 120], the half-inhibitory concentration (IC50) in assay [1] came out at 2640 nM.

With `O=C1CN(c2c(O)cc(CCN3CCOCC3)cc2F)S(=O)(=O)N1` [Example 89], the IC50 in assay [1] came out at 8910 nM.

As for `CC(C)CCCN1CCCCC1Cc1ccc(O)c(N2CC(=O)NS2(=O)=O)c1F` (centres unmarked) [Example 79], in assay [1], the concentration for half-maximal inhibition (IC50) was found to be 3450 nM.

For `CC1(C)CN(CCc2cc(O)c(N3CC(=O)NS3(=O)=O)c(F)c2)C1` [Example 127], the concentration for half-maximal inhibition (IC50) in assay [1] was 657 nM.

Turning to `O=C1CN(c2c(O)cc(CCN3CC(C(F)(F)F)C3)cc2F)S(=O)(=O)N1` [Example 137], the IC50 in assay [1] came to 2160 nM.

Turning to `CC(C)[C@@H]1CCN(CCc2cc(O)c(N3CC(=O)NS3(=O)=O)c(F)c2)C1` [Example 134], the half-inhibitory concentration (IC50) in assay [1] stood at 516 nM.

In assay [2], `O=C1CN(c2c(O)cc(C[C@@H]3CCNC3)cc2F)S(=O)(=O)N1` (single isomer, unassigned) [Example 26] yielded an IC50 of 8 nM.

Turning to `CC(C)[C@H]1CCN(CCc2cc(O)c(N3CC(=O)NS3(=O)=O)c(F)c2)C1` [Example 135], the IC50 in assay [1] worked out at 290 nM.

As to `O=C1CN(c2c(O)ccc(CC3CCCCN3)c2F)S(=O)(=O)N1` (centres unmarked) [Example 75], in assay [2], the midpoint of inhibition, the IC50, lay at 20 nM.

As to `O=C1CN(c2c(O)cc(CCN3CCCC(F)C3)cc2F)S(=O)(=O)N1` (centres unmarked) [Example 97], the concentration for half-maximal inhibition (IC50) in assay [1] came out at 1540 nM.

For the compound `COC1CCN(CCc2cc(O)c(N3CC(=O)NS3(=O)=O)c(F)c2)CC1` [Example 104], in assay [1], the IC50 stood at 723 nM.

Consider `O=C1CN(c2c(O)cc(CC3CCN(Cc4ccco4)C3)cc2F)S(=O)(=O)N1` (centres unmarked) [Example 7], for which the IC50 in assay [1] worked out at 2470 nM.

Compound `O=C1CN(c2c(O)cc(CC3CCCNCC3)cc2F)S(=O)(=O)N1` (centres unmarked) [Example 57] gave an IC50 in assay [2] of 15 nM.

As for `O=C1CN(c2c(O)cc(CCN3CC[C@@H](C(F)(F)F)C3)cc2F)S(=O)(=O)N1` [Example 122], the IC50 in assay [1] is 2670 nM.

With `CN1CCC(Cc2cc(O)c(N3CC(=O)NS3(=O)=O)c(F)c2)C1` (centres unmarked) [Example 1, 5-(2-fluoro-6-hydroxy-4-((1-methylpyrrolidin-3-yl)methyl)phenyl)-1,2,5-thiadiazolidin-3-one 1,1-dioxide], in assay [2], the IC50 was 7 nM.

Take `CC1CN(CCc2cc(O)c(N3CC(=O)NS3(=O)=O)c(F)c2)C1` [Example 140]: the half-inhibitory concentration (IC50) in assay [1] came out at 472 nM.

Regarding `O=C1CN(c2c(O)cc(CCN3Cc4ccccc4C3)cc2F)S(=O)(=O)N1` [Example 128], the IC50 in assay [1] worked out at 610 nM.

With `O=C1CN(c2c(O)cc(CCN3CCC4(CCOCC4)C3)cc2F)S(=O)(=O)N1` [Example 113], the IC50 in assay [1] amounted to 216 nM.

Take `O=C1CN(c2c(O)cc(CCN3CC(F)C3)cc2F)S(=O)(=O)N1` [Example 136]: the IC50 in assay [1] turned out to be 937 nM.

`O=C1CN(c2c(O)cc(C[C@H]3CCNC3)cc2F)S(=O)(=O)N1` (single isomer, unassigned) [Example 25] displayed a concentration for half-maximal inhibition (IC50) in assay [2] of 15 nM.

In the case of `O=C1CN(c2c(O)cc(CCN3CCC4(CCCC4)C3)cc2F)S(=O)(=O)N1` [Example 112], in assay [1], the IC50 came to 165 nM.

`O=C1CN(c2c(O)cc(CC3CCCN(Cc4cocn4)C3)cc2F)S(=O)(=O)N1` (centres unmarked) [Example 47] came in with an IC50 in assay [2] of 98 nM.
